Measured values: US12595243B2, “Modulators of extracellular signal-regulated kinase” (GEN1E LIFESCIENCES INC., priority 2023, dated 2026)
Like-named read-outs stand apart in the source and are kept apart here.

Columns and labels:
[1] = system: melanoma cell line RPMI-7951; assay: Cytotoxicity in cancer cell lines (CellTiter-Glo), RPMI-7951; format: cell-based; settings: Homo sapiens
From the text: (§1) All cells were obtained from ATCC. […] Normocin® was obtained from InvivoGen. FBS was obtained from Gibco. […] All test compounds were synthesized as described herein.

[2] = system: melanoma cell line Sk-Mel-28; assay: Cytotoxicity in cancer cell lines (CellTiter-Glo), Sk-Mel-28; format: cell-based
From the text: as §1

[3] = system: glioblastoma cell line U87; assay: Cytotoxicity in cancer cell lines (CellTiter-Glo), U87; format: cell-based
From the text: as §1

[4] = system: immortalized human T lymphocyte Jurkat cells; assay: Cytotoxicity in cancer cell lines (CellTiter-Glo), Jurkat; format: cell-based
From the text: as §1

melanoma cell line A375 = assay: Cytotoxicity in cancer cell lines (CellTiter-Glo), A375; settings: Homo sapiens, A375 cells, mean of three tests
Method: (§2) The cytotoxicity of test compounds was determined for several cell lines including melanoma cell line RPMI-7951, melanoma cell line Sk-Mel-28, melanoma cell line A375, melanoma cell line U87, glioblastoma cell line U87, immortalized human T lymphocyte Jurkat cells, and human pancreatic carcinoma cell line PL-45.
(§3) All cells were obtained from ATCC. RPMI, DMEM, EMEM and pen/strep were obtained from Invitrogen. Normocin® was obtained from InvivoGen. FBS was obtained from Gibco. Cell viability reagent Cell-titer glow was obtained from Promega.
(§4) The growth media for A375 and PL45 cells was DMEM supplemented with antibiotic/anti-mycotic pen/strep and Normocin® (InvivoGen) and 10% FBS.
(§5) Ten (10) mM solutions of each of the test compounds were prepared in dimethyl sulfoxide (DMSO) and serially diluted in DMSO to provide solutions having concentrations of the test compound of 3 mM, 1 mM, 0.3 mM, 0.1 mM, 0.03 mM, or 0.01 mM. Forty (40) μL of each of the solutions were further diluted to 400 μL in the cell specific complete media to provide 10× stock solutions having a 1 mM, 300 μM, 100 μM, 30 μM, 10 μM, 3 μM, 1 μM, or 0.3 μM of the test compound. Ten (10) μL of DMSO was diluted to 400 μL in the complete media and used as the 0 μM control.
(§6) For the cytotoxicity studies, all cells were grown in their respective complete media. Confluent cells were harvested and plated into two 96-well tissue culture treated plates at 5,000-8,000 cells/wells in 180 μL media. Twenty (20) μL of each of the 10× stock solutions were added to the wells and mixed.
(§7) After incubating for 24 h, media was aspirated out and replaced with 180 μL/well of the fresh media and 20 μL/well of the 10× stock solutions in duplicate wells in duplicate plates (Plates 1 and 2; and 3 and 4) and in quadruplicate wells (Plate 5) were added, mixed and cultured for 48 hours. The final concentrations of each test compound were 100 μM, 30 μM, 10 μM, 3 μM, 1 μM, 0.3 μM, 0.1 μM and 0 μM.
(§8) After 48 hours and/or 72 hours following addition of the test compounds, one plate each was removed from the incubator, the media aspirated out, 100 μL of CellTiter-Glo® reagent added to each well, and the resulting luminescent signals measured using a VICTOR-2® plate reader.
(§9) The data from the plate reader were exported to GraphPad (Prism) and data processed using non-linear regression and EC50 value determined.

[5] = system: human pancreatic carcinoma cell line PL-45; assay: Cytotoxicity in cancer cell lines (CellTiter-Glo), PL-45; settings: PL45, 48 h, read-out: Cytotoxicity EC50 at 48 hours, PL-45
Method: as §2, §3, §4, §5, §6, §7, §8, §9

[6] = RPMI-7951, 48 h, read-out: Cytotoxicity EC50 at 48 hours, RPMI
[7] = Homo sapiens, SK-MEL-28, 48 h, 48 h, Sk-Mel-28 cells, mean of three tests, read-out: Cytotoxicity EC50 at 48 hours, Sk mel
[8] = Homo sapiens, U-87 MG, 48 h; U87 cells; mean of three tests; read-out: Cytotoxicity EC50 at 48 hours, U87
[9] = 48 h, Jurkat cells, mean of three tests, read-out: Cytotoxicity EC50 at 48 hours, Jurkat
[10] = A-375, 48 h, read-out: Cytotoxicity EC50 at 48 hours, A375, 48 h
[11] = RPMI-7951, 72 h, read-out: Cytotoxicity EC50 at 72 hours, RPMI
[12] = Homo sapiens, SK-MEL-28, 72 h, 72 h, Sk-Mel-28 cells, mean of three tests, read-out: Cytotoxicity EC50 at 72 hours, Sk mel
[13] = Homo sapiens, U-87 MG, 72 h; U87 cells; mean of three tests; read-out: Cytotoxicity EC50 at 72 hours, U87
[14] = 72 h, Jurkat cells, mean of three tests, read-out: Cytotoxicity EC50 at 72 hours, Jurkat
[15] = A-375, 72 h, read-out: Cytotoxicity EC50 at 72 hours, A375, 72 h
[16] = Homo sapiens, SK-MEL-28, 48 h, read-out: Cytotoxicity EC50 at 48 hours, Sk mel
[17] = Homo sapiens, SK-MEL-28, 72 h, read-out: Cytotoxicity EC50 at 72 hours, Sk mel
[18] = Homo sapiens, U-87 MG, 48 h, read-out: Cytotoxicity EC50 at 48 hours, U87
[19] = Homo sapiens, U-87 MG, 72 h, read-out: Cytotoxicity EC50 at 72 hours, U87
[20] = Jurkat, 48 h, read-out: Cytotoxicity EC50 at 48 hours, Jurkat
[21] = Jurkat, 72 h, read-out: Cytotoxicity EC50 at 72 hours, Jurkat

Row | Structure (SMILES) | EC50 [1, 6] | EC50 [2, 7] | EC50 [3, 8] | EC50 [4, 9] | EC50 (melanoma cell line A375; [10]) | EC50 [1, 11] | EC50 (melanoma cell line A375; [15]) | other results
1 | CN(C1C=CS(=O)(=O)C1)S(=O)(=O)c1ccc2ccccc2c1 (stereo not drawn) [(2), N-(1,1-dioxido-2,3-dihydrothiophen-3-yl)-N-methylnaphthalene-2-sulfonamide] | 85 µM | > 100 µM | > 100 µM | 53 µM | > 100 µM |  |  | 
2 | O=S1(=O)C=CC(NS(=O)(=O)c2ccc3ccccc3c2)C1 (stereo not drawn) [(3), N-(1,1-dioxido-2,3-dihydrothiophen-3-yl)naphthalene-2-sulfonamide] | 19 µM | > 100 µM | 100 µM | 6 µM | 14 µM |  |  | 
3 | O=S1(=O)C=CC(OCc2ccc3ccccc3c2)C1 (stereo not drawn) [(4), 3-(naphthalen-2-ylmethoxy)-2,3-dihydrothiophene 1,1-dioxide] | 44 µM | 78 µM | > 100 µM | 7 µM | 19 µM | 26 µM | 5 µM | EC50 [2, 12]: 42 µM; EC50 [3, 13]: 53 µM; EC50 [4, 14]: 4 µM
4 | O=S1(=O)C=CC(OCc2ccc(-c3ccccc3)cc2)C1 (stereo not drawn) [(5), 3-([1,1′-biphenyl]-4-ylmethoxy)-2,3-dihydrothiophene 1,1-dioxide] | 72 µM | > 100 µM | > 100 µM | 6 µM | 80 µM | 86 µM | 75 µM | EC50 [2, 12]: > 100 µM; EC50 [3, 13]: > 100 µM; EC50 [4, 14]: 2 µM
5 | O=S1(=O)C=CC(OCc2ccc(Oc3ccccc3)cc2)C1 (stereo not drawn) [(6), 3-((4-phenoxybenzyl)oxy)-2,3-dihydrothiophene 1,1-dioxide] | 40 µM | 69 µM | > 100 µM | > 100 µM | 24 µM | 24 µM | 19 µM | EC50 [2, 12]: 48 µM; EC50 [3, 13]: 46 µM; EC50 [4, 14]: > 100 µM
6 | O=S1(=O)C=CC(OCCc2ccc3ccccc3c2)C1 (stereo not drawn) [(7), 3-(2-(naphthalen-2-yl)ethoxy)-2,3-dihydrothiophene 1,1-dioxide] | 19 µM | 95 µM |  | 10 µM | 29 µM |  |  | 
7 | O=C(COC1C=CS(=O)(=O)C1)c1ccc2ccccc2c1 (stereo not drawn) [(8), 2-((1,1-dioxido-2,3-dihydrothiophen-3-yl)oxy)-1-(naphthalen-2-yl)ethan-1-one] | 20 µM |  |  | 0.5 µM | 11 µM | 16 µM | 46 µM | EC50 [2, 16]: > 100 µM; EC50 [2, 17]: 77 µM; EC50 ([3]; Homo sapiens, U-87 MG; 48 h; U87 cells; mean of three tests; read-out: Cytotoxicity EC50 at 48 hours, U87): > 100 µM; EC50 ([3]; Homo sapiens, U-87 MG; 72 h; U87 cells; mean of three tests; read-out: Cytotoxicity EC50 at 72 hours, U87): 37 µM; EC50 [4, 14]: 0.5 µM
8 | O=C(COC1C=CS(=O)(=O)C1)c1ccc(-c2ccccc2)cc1 (stereo not drawn) [(9), 1-([1,1′-biphenyl]-4-yl)-2-((1,1-dioxido-2,3-dihydrothiophen-3-yl)oxy)ethan-1-one] | 11 µM |  |  |  | 19 µM | 10 µM | 47 µM | EC50 [2, 16]: 71 µM; EC50 [2, 17]: 12 µM; EC50 [3, 18]: 32 µM; EC50 [3, 19]: 28 µM; EC50 [4, 20]: 22 µM; EC50 [4, 21]: 9 µM
9 | O=C(Nc1ccc2ccccc2c1)OC1C=CS(=O)(=O)C1 (stereo not drawn) [(10), 1,1-dioxido-2,3-dihydrothiophen-3-yl naphthalen-2-ylcarbamate] | 39 µM |  |  |  | 31 µM | 28 µM | 46 µM | EC50 [2, 16]: 38 µM; EC50 [2, 17]: 25 µM; EC50 [3, 18]: > 100 µM; EC50 [3, 19]: 31 µM; EC50 [4, 20]: > 100 µM; EC50 [4, 21]: 8 µM
10 | O=C(Nc1ccc(-c2ccccc2)cc1)OC1C=CS(=O)(=O)C1 (stereo not drawn) [(11), 1,1-dioxido-2,3-dihydrothiophen-3-yl [1,1′-biphenyl]-4-ylcarbamate] | 25 µM |  |  |  |  | 12 µM | 97 µM | EC50 [2, 16]: 66 µM; EC50 [2, 17]: 62 µM; EC50 [3, 18]: 3 µM; EC50 [4, 20]: 10 µM
11 | O=C(Nc1ccc2ccccc2c1)NC1C=CS(=O)(=O)C1 (stereo not drawn) [(12), 1-(1,1-dioxido-2,3-dihydrothiophen-3-yl)-3-(naphthalen-2-yl)urea] | 100 µM |  |  |  | > 100 µM |  |  | EC50 [2, 16]: > 100 µM; EC50 [3, 18]: > 100 µM; EC50 [4, 20]: > 100 µM
12 | O=C(Nc1ccc(-c2ccccc2)cc1)NC1C=CS(=O)(=O)C1 (stereo not drawn) [(13), 1-([1,1′-biphenyl]-4-yl)-3-(1,1-dioxido-2,3-dihydrothiophen-3-yl)urea] | > 100 µM | > 100 µM | 1 µM | 86 µM | > 100 µM |  |  | 
13 | O=C(NC1C=CS(=O)(=O)C1)c1ccc2ccccc2c1 (stereo not drawn) [(14), N-(1,1-dioxido-2,3-dihydrothiophen-3-yl)-2-naphthamide] | 12 µM | > 100 µM | > 100 µM | 10 µM | 86 µM | 9.4 µM | 70 µM | EC50 [2, 12]: 100 µM
14 | O=C(Cc1ccc2ccccc2c1)NC1C=CS(=O)(=O)C1 (stereo not drawn) [(15), N-(1,1-dioxido-2,3-dihydrothiophen-3-yl)-2-(naphthalen-2-yl)acetamide] | 36 µM | 73 µM | 100 µM | 26 µM | 42 µM |  |  | 
15 | CN(C1CCS(=O)(=O)C1)S(=O)(=O)c1ccc2ccccc2c1 (stereo not drawn) [(16)] | > 100 µM | > 100 µM | > 100 µM | 9 µM | > 100 µM | > 100 µM | 100 µM | EC50 [2, 12]: > 100 µM; EC50 [3, 13]: > 100 µM; EC50 [4, 14]: 8 µM
16 | CN(C1=CS(=O)(=O)CC1)S(=O)(=O)c1ccc2ccccc2c1 [(19), N-(1,1-dioxido-4,5-dihydrothiophen-3-yl)-N-methylnaphthalene-2-sulfonamide] | > 100 µM | 82 µM | > 100 µM | > 100 µM | > 100 µM |  |  | EC50 ([2]; 48 h, Sk-Mel-28 cells, mean of three tests, read-out: Cytotoxicity EC50 at 48 hours, Sk mel): > 100 µM
17 | CN(C1=CCS(=O)(=O)C1)S(=O)(=O)c1ccc2ccccc2c1 [(20), N-(1,1-dioxido-2,5-dihydrothiophen-3-yl)-N-methylnaphthalene-2-sulfonamide] | > 100 µM | > 100 µM | > 100 µM | > 100 µM | > 100 µM |  |  | 
18 | O=C(OC1C=CS(=O)(=O)C1)c1ccc(Oc2ccccc2)cc1 (stereo not drawn) [(23), 1,1-Dioxido-2,3-dihydrothiophen-3-yl 4-phenoxybenzoate] |  |  |  |  | 23 µM |  |  | EC50 [5]: 8.3 µM
19 | CCOS(=O)(=O)c1ccc2ccccc2c1 [(31), ethyl naphthalene-2-sulfonate] |  |  |  |  | > 100 µM |  |  | 
20 | CC(C)OS(=O)(=O)c1ccc2ccccc2c1 [(32), isopropyl naphthalene-2-sulfonate] |  |  |  |  | > 100 µM |  |  | 
